Experimental data as given in patent US10752612B2, “PLK4 inhibitors” (LUDWIG INSTITUTE FOR CANCER RESEARCH LTD, priority 2015, dated 2020).

The molecules below were run against T1, human Plk4 kinase domain (aa 2-275) (Homo sapiens, UniProt O00444) (assay: Plk4 kinase assay (ADP-Glo)). Conditions: Table 1.
T1 construct: purified 6×His-tagged human Plk4 kinase domain (aa 2-275); 6xHis; made in house; host or cells: E. coli
T1 sequence (O00444 2-275): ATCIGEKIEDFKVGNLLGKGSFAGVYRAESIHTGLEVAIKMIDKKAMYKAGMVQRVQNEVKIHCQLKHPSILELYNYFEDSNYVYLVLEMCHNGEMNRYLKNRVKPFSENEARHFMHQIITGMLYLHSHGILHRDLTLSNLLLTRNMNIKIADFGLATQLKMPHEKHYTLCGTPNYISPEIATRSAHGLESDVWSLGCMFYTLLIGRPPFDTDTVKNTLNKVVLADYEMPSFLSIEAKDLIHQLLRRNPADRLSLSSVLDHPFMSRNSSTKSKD
Type: biochemical
Procedure, shortened: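 Enzyme at 2.5-10 nM final, pH 8.0, reacted 4-16 hours at 25° C; ADP generation read by ADP-Glo luminescence. Ki derived from IC50 by Cheng-Prusoff or, for tight binders, Copeland formalism.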

| IC50 [µM] | Compound |
| --- | --- |
| < 1 | Cc1cc(Nc2cc(C)[nH]n2)nc(Sc2ccc(NC(=O)C3CC3)cc2)n1 |
| < 1 | CNCCN(C)c1nc(Sc2ccc(NC(=O)C3CC3)cc2)nc(Nc2cc(C)[nH]n2)c1C |
| < 1 | COCCN(C)c1nc(Sc2ccc(NC(=O)C3CC3)cc2)nc(Nc2cc(C)[nH]n2)c1C |
| 0.1 to 1 | Cc1cc(Nc2nc(Sc3ccc(NC(=O)C4CC4)cc3)nc(-n3ccnc3)c2C)n[nH]1 |
| > 1 | CCc1cc(Nc2nc(Sc3ccc(NC(=O)C4CC4)cc3)nc(N3CCN(C)CC3)c2C)n[nH]1 |
| < 1 | COc1c(Nc2cc(C)[nH]n2)nc(Sc2ccc(NC(=O)C3CC3)cc2)nc1N1CCOCC1 |
| < 1 | COc1c(Nc2cc(C)[nH]n2)nc(Sc2ccc(NC(=O)C3CC3)cc2)nc1N1CCNCC1 |
| 0.1 to 1 | COc1c(Nc2cc(C)[nH]n2)nc(Sc2ccc(NC(=O)C3CC3)cc2)nc1N(C)C(C)C |
| < 1 | Cc1cc(Nc2nc(Sc3ccccc3)nc(N3CCOCC3)c2C)n[nH]1 |
| < 1 | CC(=O)Nc1ccc(Sc2nc(Nc3cc(C)[nH]n3)c(C)c(N3CCC(N)CC3)n2)cc1 |
| < 1 | CC(=O)Nc1ccc(Sc2nc(Nc3cc(C)[nH]n3)c(C)c(N3CCC(N(C)C)CC3)n2)cc1 |
| < 1 | CC(=O)Nc1ccc(Sc2nc(Nc3cc(C)[nH]n3)c(C)c(N3CCC(C)(O)CC3)n2)cc1 |
| < 1 | CCN(CC)c1nc(Sc2ccc(NC(C)=O)cc2)nc(Nc2cc(C)[nH]n2)c1C |
| < 1 | Cc1cc(Nc2nc(Sc3ccc(N)cc3)nc(N3CCC(O)CC3)c2C)n[nH]1 |
| < 1 | Cc1cc(Nc2nc(Sc3ccc(N)cc3)nc(N3CCOCC3)c2C)n[nH]1 |
| < 1 | COCC(=O)N1CCN(c2nc(Sc3ccccc3)nc(Nc3cc(C)[nH]n3)c2C)CC1 |
| < 1 | CSc1nc(Nc2cc(C)[nH]n2)c(C)c(N(C)C(C)C)n1 |
| < 1 | COc1c(Nc2cc(C)[nH]n2)nc(Sc2ccc(NC(C)=O)cc2)nc1N1CCC(CCN(C)C)CC1 |
| < 1 | CNC(=O)Nc1ccc(Sc2nc(Nc3cc(C)[nH]n3)c(C)c(N(C)C(C)C)n2)cc1 |
| < 1 | CNC(=O)Nc1ccc(Sc2nc(Nc3cc(C)[nH]n3)c(C)c(N3CCN(C(=O)COC)CC3)n2)cc1 |
| < 1 | Cc1cc(Nc2nc(Sc3ccc(N)cc3)nc(N(C)C(C)C)c2C)n[nH]1 |
| < 1 | COCC(=O)N1CCN(c2nc(Sc3ccc(N)cc3)nc(Nc3cc(C)[nH]n3)c2C)CC1 |
| < 1 | Cc1ccc(Sc2nc(Nc3cc(C)[nH]n3)c(C)c(N3CCC(O)CC3)n2)cc1 |
| < 1 | Cc1ccc(Sc2nc(Nc3cc(C)[nH]n3)c(C)c(N3CCOCC3)n2)cc1 |
| < 1 | COCC(=O)N1CCN(c2nc(Sc3ccc(C)cc3)nc(Nc3cc(C)[nH]n3)c2C)CC1 |
| < 1 | COc1c(Nc2cc(C)[nH]n2)nc(Sc2ccc(S(=O)(=O)Cc3ccccc3)cc2)nc1N1CCN(CCN2CCCCC2)CC1 |

| IC50 [µM] | Compound |
| --- | --- |
| < 1 | COc1c(Nc2cc(C)[nH]n2)nc(Sc2ccc(S(=O)(=O)Cc3ccccc3)cc2)nc1N1CCN(CCN2C(C)CCCC2C)CC1 (centres unmarked) |
| < 1 | COc1c(Nc2cc(C)[nH]n2)nc(Sc2ccc(S(=O)(=O)Cc3ccccc3)cc2)nc1N1CCN(CCN2CCC(O)CC2)CC1 |
| < 1 | CC(=O)Nc1ccc(Sc2nc(Nc3cc(C)[nH]n3)c(Cl)c(N3CCC(O)CC3)n2)cc1 |
| < 1 | CC(=O)Nc1ccc(Sc2nc(N3CCC(O)CC3)nc(Nc3cc(C)[nH]n3)c2Cl)cc1 |
| < 1 | CCN(c1nc(Sc2ccc(NC(C)=O)cc2)nc(Nc2cc(C)[nH]n2)c1C)C(C)C |
| < 1 | CC(=O)Nc1ccc(Sc2nc(Nc3cc(C)[nH]n3)c(C)c(N(CCO)C(C)C)n2)cc1 |
| < 1 | CC(=O)Nc1ccc(Sc2nc(Nc3cc(C)[nH]n3)c(C)c(N3CCN(CCN4CCCCC4)CC3)n2)cc1 |
| < 1 | CCOc1c(Nc2cc(C)[nH]n2)nc(Sc2ccc(NC(C)=O)cc2)nc1N1CCC(O)CC1 |
| < 1 | Cc1ccc(Sc2nc(Nc3cc(C)[nH]n3)c(C)c(N(C)C(C)C)n2)cc1 |
| < 1 | COCC(=O)N1CCN(c2nc(SC)nc(Nc3cc(C)[nH]n3)c2C)CC1 |
| 0.1 to 1 | CCOc1c(Nc2cc(C)[nH]n2)nc(SC)nc1N1CCC(O)CC1 |
| 0.1 to 1 | CCOc1c(Nc2cc(C)[nH]n2)nc(SC)nc1N1CCCCC1 |
| 0.1 to 1 | CCOc1c(Nc2cc(C)[nH]n2)nc(SC)nc1N1CCN(C)CC1 |
| 0.1 to 1 | CCOc1c(Nc2cc(C)[nH]n2)nc(SC)nc1N1CCN(CCN(C)C)CC1 |
| < 1 | Cc1cc(Nc2nc(Sc3ccc(NC(=O)C4CC4)cc3)nc(N3CCC(O)CC3)c2C)n[nH]1 |
| < 1 | COc1c(Nc2cc(C)[nH]n2)nc(Sc2ccc(NC(=O)C3CC3)cc2)nc1N1CCC(O)CC1 |
| < 1 | CC(=O)Nc1ccc(Sc2nc(Nc3cc(C)[nH]n3)c(C)c(N3C4CCC3CC(O)C4)n2)cc1 (centres unmarked) |
| < 1 | COc1c(Nc2cc(C)[nH]n2)nc(Sc2ccc(NC(C)=O)cc2)nc1N1C2CCC1CC(O)C2 (centres unmarked) |
| < 1 | COc1c(Nc2cc(C)[nH]n2)nc(Sc2ccc(S(=O)(=O)Cc3ccccc3)cc2)nc1N1CCO[C@H](C)C1 |
| < 1 | COc1c(Nc2cc(C)[nH]n2)nc(Sc2ccc(S(=O)(=O)Cc3ccccc3)cc2)nc1N1CCN(C2CCN(Cc3ccccc3)CC2)CC1 |
| < 1 | COc1c(Nc2cc(C)[nH]n2)nc(Sc2ccc(S(=O)(=O)Cc3ccccc3)cc2)nc1N1CCO[C@@H](C)C1 |
| < 1 | COc1c(Nc2cc(C)[nH]n2)nc(Sc2ccc(S(=O)(=O)Cc3ccccc3)cc2)nc1N1CC2CCC(C1)O2 |
| < 1 | COc1cccc(CS(=O)(=O)c2ccc(Sc3nc(Nc4cc(C)[nH]n4)c(OC)c(N4CCN(CCN(C)Cc5ccccc5)CC4)n3)cc2)c1 |
| < 1 | COc1c(Nc2cc(C)[nH]n2)nc(Sc2ccc(S(=O)(=O)Cc3ccccc3C)cc2)nc1N1CCN(CCN(C)C)CC1 |
| < 1 | COc1c(Nc2cc(C)[nH]n2)nc(Sc2ccc(S(=O)(=O)Cc3ccccc3)cc2)nc1N1CCOC[C@H]1C |
| < 1 | COc1c(Nc2cc(C)[nH]n2)nc(Sc2ccc(S(=O)(=O)Cc3ccccc3)cc2)nc1N1CCOC[C@@H]1C |

| IC50 [µM] | Compound |
| --- | --- |
| < 1 | COc1c(Nc2cc(C)[nH]n2)nc(Sc2ccc(S(=O)(=O)Cc3cccc(F)c3)cc2)nc1N1CCN(CCN(C)C)CC1 |
| < 1 | COc1c(Nc2cc(C)[nH]n2)nc(Sc2ccc(S(=O)(=O)Cc3cccc([N+](=O)[O-])c3F)cc2)nc1N1CCN(CCN(C)C)CC1 |
| < 1 | COC(=O)c1cccc(CS(=O)(=O)c2ccc(Sc3nc(Nc4cc(C)[nH]n4)c(OC)c(N4CCN(CCN(C)C)CC4)n3)cc2)c1 |
| < 1 | COc1c(Nc2cc(C)[nH]n2)nc(Sc2ccc(S(=O)(=O)Cc3cccc(C(N)=O)c3)cc2)nc1N1CCN(CCN(C)C)CC1 |
| < 1 | COc1c(Nc2cc(C)[nH]n2)nc(Sc2ccc(S(=O)(=O)Cc3ccccc3)cc2)nc1N1CCN(CCN2CCC2)CC1 |
| < 1 | COc1c(Nc2cc(C)[nH]n2)nc(Sc2ccc(S(=O)(=O)Cc3ccccc3NC(C)=O)cc2)nc1N1CCN(CCN(C)C)CC1 |
| < 1 | COc1c(Nc2cc(C)[nH]n2)nc(Sc2ccc(S(=O)(=O)Cc3ccccc3C(F)(F)F)cc2)nc1N1CCN(CCN(C)C)CC1 |
| < 1 | COc1c(Nc2cc(C)[nH]n2)nc(Sc2ccc(S(=O)(=O)Cc3ccccc3N(C)C)cc2)nc1N1CCN(CCN(C)C)CC1 |
| < 1 | COc1c(Nc2cc(C)[nH]n2)nc(Sc2ccc(S(=O)(=O)Cc3ccccc3-c3ccccc3)cc2)nc1N1CCN(CCN(C)C)CC1 |
| < 1 | COc1c(Nc2cc(C)[nH]n2)nc(Sc2ccc(S(=O)(=O)Cc3ccccc3C#N)cc2)nc1N1CCN(CCN(C)C)CC1 |
| < 1 | COc1c(Nc2cc(C)[nH]n2)nc(Sc2ccc(S(=O)(=O)Cc3cccc(C(=O)N(C)C)c3)cc2)nc1N1CCN(CCN(C)C)CC1 |
| < 1 | COc1c(Nc2cc(C)[nH]n2)nc(Sc2ccc(S(=O)(=O)Cc3ccccc3C(N)=O)cc2)nc1N1CCN(CCN(C)C)CC1 |
| < 1 | COc1c(Nc2cc(C)[nH]n2)nc(Sc2ccc(S(=O)(=O)Cc3ccccc3)cc2)nc1N1CCC(CCC23CC4CCC(C2)N43)CC1 (centres unmarked) |
| < 1 | COc1c(Nc2cc(C)[nH]n2)nc(Sc2ccc(S(=O)(=O)Cc3cccc([N+](=O)[O-])c3)cc2)nc1N1CCOC[C@H]1C |
| < 1 | COc1c(Nc2cc(C)[nH]n2)nc(Sc2ccc(S(=O)(=O)Cc3ccccc3)cc2)nc1N1CCN(C2CCNCC2)CC1 |
| < 1 | COc1c(Nc2cc(C)[nH]n2)nc(Sc2ccc(S(=O)(=O)Cc3ccccc3)cc2Cl)nc1N1CCN(CCN(C)C)CC1 |
| < 1 | COc1c(Nc2cc(C)[nH]n2)nc(Sc2ccc(S(=O)(=O)Cc3cccc([N+](=O)[O-])c3)cc2)nc1N1CCO[C@H](C)C1 |
| < 1 | COc1c(Nc2cc(C)[nH]n2)nc(Sc2ccc(S(=O)(=O)Cc3cccc([N+](=O)[O-])c3)cc2)nc1N1CCO[C@@H](C)C1 |
| < 1 | COc1c(Nc2cc(C)[nH]n2)nc(Sc2ccc(S(=O)(=O)Cc3cccc(NC(C)=O)c3)cc2)nc1N1CCN(CCN(C)C)CC1 |
| < 1 | COc1c(Nc2cc(C)[nH]n2)nc(Sc2ccc(S(=O)(=O)Cc3cccc(N(C)C)c3)cc2)nc1N1CCN(CCN(C)C)CC1 |
| < 1 | COC(=O)c1ccccc1CS(=O)(=O)c1ccc(Sc2nc(Nc3cc(C)[nH]n3)c(OC)c(N3CCN(CCN(C)C)CC3)n2)cc1 |
| < 1 | COc1c(Nc2cc(C)[nH]n2)nc(Sc2ccc(S(=O)(=O)Cc3ccccc3C(=O)N(C)C)cc2)nc1N1CCN(CCN(C)C)CC1 |
| < 1 | COc1c(Nc2cc(C)[nH]n2)nc(Sc2ccc(S(=O)(=O)Cc3cccc(C(=O)O)c3)cc2)nc1N1CCN(CCN(C)C)CC1 |
| < 1 | COc1c(Nc2cc(C)[nH]n2)nc(Sc2ccc(S(=O)(=O)Cc3ccccc3C(=O)O)cc2)nc1N1CCN(CCN(C)C)CC1 |
| < 1 | COc1ccc([N+](=O)[O-])cc1CS(=O)(=O)c1ccc(Sc2nc(Nc3cc(C)[nH]n3)c(OC)c(N3CCN(CCN(C)C)CC3)n2)cc1 |
